Experimental data as given in patent publication US20250313563A1, “GLYCOGEN SYNTHASE KINASE 3 INHIBITORS AND USES THEREOF” (The Broad Institute, Inc., priority 2022, published 2025).
Like-named read-outs stand apart in the source and are kept apart here.

Legend:
[1] = target: GSK3α (GST-full length GSK3α) (Homo sapiens (Human), UniProt P49840); assay: GSK3α TR-FRET kinase assay; type: biochemical
Protocol: (§1) TR-FRET Assay: The assay was performed in a white, 384 well, low volume, flat bottom plate (Grenier). After a 30 minute preincubation in assay buffer with the indicated concentration of compound, the kinase activity was initiated by the addition of the substrates. 1 nM GSK3α (GST-full length GSK3α [SignalChem G08-10G]) or 1 nM GSK3b (GST-full length GSK3b: [SignalChem G08-9G]) were then incubated at ambient temperature for 100 minutes in 10 μL of 50 mM Tris, pH 7.5, 20 mM MgCl2, 0.05 mM DTT, 100 μg/mL BSA and 1% DMSO, with 200 nM biotinylated peptide substrate (biotinylated and S645 phosphorylated glycogen synthase 631-650) and either 4 μM ATP (GSK3α, Table 16) or 2 μM ATP (GSK3b, Table 16) or 1 mM ATP (Table 17). The kinase activity was quenched with 2 μL of 250 mM EDTA. A 10 μL volume of 40 nM Strepavidin-d2, 2 nM Tb^2+-pSer641 antibody in TR-FRET Detection Buffer (Invitrogen) was then added. After 60 min at room temperature the plate was read on Envision plate reader using Ex: 340 nm, Em: 615 nm and […]. The normalized 665/615 Signal ratio versus log compound concentration was analyzed by XLFIT to yield IC50 values.

[2] = target: GSK3b (GST-full length GSK3b) (Homo sapiens (Human), UniProt P49841); assay: GSK3b TR-FRET kinase assay; type: biochemical
Protocol: as §1

[3] = 1 nM GSK3α, 4 μM ATP, 30 minute preincubation, geometric mean, read-out: GSK3-A TR-FRET BIOCHEMICAL (TR-FRET), GMean, IC50
[4] = 1 nM GSK3b, 2 μM ATP, 30 minute preincubation, geometric mean, read-out: GSK3-B TR-FRET BIOCHEMICAL (TR-FRET), GMean, IC50
[5] = read-out: GSK3-A (TR-FRET 1 mM ATP), GMean, IC50, 1 mM ATP, geometric mean
[6] = read-out: GSK3-B (TR-FRET 1 mM ATP), GMean, IC50, 1 mM ATP, geometric mean
[7] = 1 nM GSK3α, 4 μM ATP, 30 minute preincubation, Table 16, read-out: GSK3-A TR-FRET BIOCHEMICAL (TR-FRET)
[8] = 1 nM GSK3b, 2 μM ATP, 30 minute preincubation, Table 16, read-out: GSK3-B TR-FRET BIOCHEMICAL (TR-FRET)

GSK3α (GST-full length GSK3α), sequence (P49840 whole entry): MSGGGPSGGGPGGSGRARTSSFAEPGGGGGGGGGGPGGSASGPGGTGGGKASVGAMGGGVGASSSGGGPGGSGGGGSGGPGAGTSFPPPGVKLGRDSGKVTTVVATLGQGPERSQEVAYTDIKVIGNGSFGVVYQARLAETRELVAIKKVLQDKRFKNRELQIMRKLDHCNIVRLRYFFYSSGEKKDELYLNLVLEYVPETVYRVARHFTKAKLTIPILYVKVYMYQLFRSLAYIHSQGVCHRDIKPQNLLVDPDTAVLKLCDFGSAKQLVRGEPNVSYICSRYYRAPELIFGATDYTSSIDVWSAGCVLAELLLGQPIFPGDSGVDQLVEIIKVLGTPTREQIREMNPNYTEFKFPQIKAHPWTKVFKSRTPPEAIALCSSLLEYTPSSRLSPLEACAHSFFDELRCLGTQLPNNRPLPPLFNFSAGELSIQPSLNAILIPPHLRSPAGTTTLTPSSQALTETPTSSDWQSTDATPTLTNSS
GSK3b (GST-full length GSK3b), sequence (P49841 whole entry): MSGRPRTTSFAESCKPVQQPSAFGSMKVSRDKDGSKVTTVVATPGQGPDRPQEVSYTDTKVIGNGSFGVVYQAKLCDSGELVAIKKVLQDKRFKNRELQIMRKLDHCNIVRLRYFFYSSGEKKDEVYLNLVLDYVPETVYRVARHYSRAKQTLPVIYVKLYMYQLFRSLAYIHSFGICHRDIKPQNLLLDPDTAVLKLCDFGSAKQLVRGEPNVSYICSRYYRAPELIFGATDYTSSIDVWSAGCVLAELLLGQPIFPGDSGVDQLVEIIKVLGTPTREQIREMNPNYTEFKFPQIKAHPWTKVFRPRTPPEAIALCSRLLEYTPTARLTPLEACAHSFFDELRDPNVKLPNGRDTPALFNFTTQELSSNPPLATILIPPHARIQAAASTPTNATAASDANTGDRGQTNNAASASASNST

| SMILES | IC50 [1, 3] [nM] | IC50 [2, 4] [nM] | other results |
| --- | --- | --- | --- |
| CCC1(c2cccc(Br)c2)C2=C(CC(C)(C)CC2=O)Nc2n[nH]cc21 (centres unmarked) [Compound 790734] | 100 to 1000 | > 5000 | – |
| CCC1(c2cccc(C(F)(F)F)c2)C2=C(CC(C)(C)CC2=O)Nc2n[nH]cc21 (centres unmarked) [Compound 790754] | ≤ 100 | ≤ 100 | IC50 [1, 5]: 100 to 1000 nM; IC50 [2, 6]: 1000 to 5000 nM |
| CC(C)(C)Cc1[nH]nc2c1C1(CCc3c(F)cccc31)C1=C(CC(C)(C)CC1=O)N2 (centres unmarked) [Compound 791256] | > 1700 | 1000 to 5000 | – |
| CC[C@]1(c2ccccc2)C2=C(C[C@H](c3ccccc3)CC2=O)Nc2n[nH]cc21 [Compound 791262] | > 5000 | > 5000 | – |
| CC[C@@]1(c2ccccc2)C2=C(C[C@H](c3ccccc3)CC2=O)Nc2n[nH]cc21 [Compound 791263] | > 5000 | > 5000 | – |
| CC[C@]1(c2ccccc2)C2=C(C[C@@H](c3ccccc3)CC2=O)Nc2n[nH]cc21 [Compound 791264] | 100 to 1000 | > 5000 | – |
| CC[C@@]1(c2ccccc2)C2=C(C[C@@H](c3ccccc3)CC2=O)Nc2n[nH]cc21 [Compound 791265] | 1000 to 5000 | > 5000 | – |
| CC[C@]1(c2ccccc2)C2=C(Nc3n[nH]cc31)[C@@H]1CC[C@@H](C1)C2=O [Compound 791266] | – | – | IC50 [1, 7]: > 5000 nM; IC50 [2, 8]: > 5000 nM |
| CC[C@@]1(c2ccccc2)C2=C(Nc3n[nH]cc31)[C@@H]1CC[C@@H](C1)C2=O [Compound 791268] | – | – | IC50 [1, 7]: > 5000 nM; IC50 [2, 8]: > 5000 nM |
| CC[C@]1(c2ccccc2)C2=C(Nc3n[nH]cc31)[C@H]1CC[C@H](C1)C2=O [Compound 791269] | – | – | IC50 [1, 7]: 100 to 1000 nM; IC50 [2, 8]: 100 to 1000 nM |
| CC[C@@]1(c2ccccc2)C2=C(Nc3n[nH]cc31)[C@H]1CC[C@H](C1)C2=O [Compound 791270] | – | – | IC50 [1, 7]: 100 to 1000 nM; IC50 [2, 8]: > 1700 nM |
| CCC1(c2cccc(-c3ccncc3)c2)C2=C(CC(C)(C)CC2=O)Nc2n[nH]cc21 (centres unmarked) [Compound 791271] | ≤ 100 | 100 to 1000 | – |
| CCC1(c2cccc(-c3cccnc3)c2)C2=C(CC(C)(C)CC2=O)Nc2n[nH]cc21 (centres unmarked) [Compound 791272] | ≤ 100 | 100 to 1000 | – |
| C[C@@]1(c2ccccc2)C2=C(CC3(CCCC3)CC2=O)Nc2n[nH]cc21 [Compound 792338] | ≤ 100 | 100 to 1000 | – |
| C[C@]1(c2ccccc2)C2=C(CC3(CCCC3)CC2=O)Nc2n[nH]cc21 [Compound 792339] | > 1700 | > 5000 | – |
| CC[C@@]1(c2ccccc2)C2=C(CC(C)(C)CC2=O)Nc2n[nH]c(Br)c21 [Compound 792340] | ≤ 100 | ≤ 100 | IC50 ([1]; GSK3-A (TR-FRET 1 mM ATP), GMean, IC50, 1 mM ATP, geometric mean): 100 to 1000 nM; IC50 ([2]; GSK3-B (TR-FRET 1 mM ATP), GMean, IC50, 1 mM ATP, geometric mean): 100 to 1000 nM |
| CC[C@]1(c2ccccc2)C2=C(CC(C)(C)CC2=O)Nc2n[nH]c(Br)c21 [Compound 792341] | 100 to 1000 | 100 to 1000 | – |
| COc1cccc(C2(C)C3=C(CC(C)(C)CC3=O)Nc3n[nH]cc32)c1 (centres unmarked) [Compound 792342] | 100 to 1000 | 100 to 1000 | – |
| CCC1(c2cccc(Cl)c2)C2=C(CC(C)(C)CC2=O)Nc2n[nH]c(C(F)(F)F)c21 (centres unmarked) [Compound 801309] | 1000 to 5000 | > 1670 | – |
| CC[C@@]1(c2cccc(C(F)(F)F)c2)C2=C(CC3(CCCC3)CC2=O)Nc2n[nH]cc21 [Compound 801311] | ≤ 100 | ≤ 100 | IC50 [1, 5]: ≤ 100 nM; IC50 [2, 6]: 100 to 1000 nM |
| CCC1(c2cccc(Cl)c2)C2=C(CC(C)(C)CC2=O)Nc2n[nH]c(Br)c21 (centres unmarked) [Compound 801314] | – | – | IC50 [1, 5]: ≤ 100 nM; IC50 [2, 6]: 100 to 1000 nM |
| CCC1(c2cccc(C3CC3)c2)C2=C(CC(C)(C)CC2=O)Nc2n[nH]cc21 (centres unmarked) [Compound 801316] | ≤ 100 | ≤ 100 | – |
| CCC1(c2cccc(N3CCCC3)c2)C2=C(CC(C)(C)CC2=O)Nc2n[nH]cc21 (centres unmarked) [Compound 801317] | 100 to 1000 | 100 to 1000 | – |

| SMILES | IC50 [1, 3] [nM] | IC50 [2, 4] [nM] | other results |
| --- | --- | --- | --- |
| CCC1(c2cccc(N(C)C(C)=O)c2)C2=C(CC(C)(C)CC2=O)Nc2n[nH]cc21 (centres unmarked) [Compound 801319] | ≤ 100 | ≤ 100 | – |
| CCC1(c2cccc(N3CCCCC3)c2)C2=C(CC(C)(C)CC2=O)Nc2n[nH]cc21 (centres unmarked) [Compound 801320] | 100 to 1000 | 100 to 1000 | – |
| CCC1(c2cccc(C(C)C)c2)C2=C(CC(C)(C)CC2=O)Nc2n[nH]cc21 (centres unmarked) [Compound 801322] | ≤ 100 | 100 to 1000 | – |
| CCC1(c2cccc(Br)c2)C2=C(CC(C)(C)CC2=O)Nc2n[nH]c(C(F)(F)F)c21 (centres unmarked) [Compound 801324] | ≤ 100 | ≤ 100 | – |
| CC(C)(C)Cc1[nH]nc2c1C1(CCc3cccc(F)c31)C1=C(CC(C)(C)CC1=O)N2 (centres unmarked) [Compound 801351] | > 1670 | 100 to 1000 | – |
| CC1(C)CC(=O)C2=C(C1)Nc1n[nH]cc1C21CCc2c(F)cccc21 (centres unmarked) [Compound 801357] | 100 to 1000 | > 1670 | – |
| CC1(C)CC(=O)C2=C(C1)Nc1n[nH]c(Br)c1C21CCc2c(F)cccc21 (centres unmarked) [Compound 801358] | ≤ 100 | ≤ 100 | – |
| CC1(C)CC(=O)C2=C(C1)Nc1n[nH]cc1[C@@]2(C)c1cccc(-c2ccccc2)c1 [Compound 801366] | > 5000 | > 5000 | – |
| CC1(C)CC(=O)C2=C(C1)Nc1n[nH]cc1[C@]2(C)c1cccc(-c2ccccc2)c1 [Compound 801367] | ≤ 100 | 100 to 1000 | – |
| CCC1(c2cccc(-c3ccccc3)c2)C2=C(CC(C)(C)CC2=O)Nc2n[nH]cc21 (centres unmarked) [Compound 801369] | > 5000 | > 5000 | – |
| CCC1(c2ccccc2)C2=C(CSCC2=O)Nc2n[nH]cc21 (centres unmarked) [Compound 801406] | – | – | IC50 ([1]; 1 nM GSK3α, 4 μM ATP, 30 minute preincubation, read-out: GSK3-A TR-FRET BIOCHEMICAL (TR-FRET), IC50): 1000 to 5000 nM; IC50 ([2]; 1 nM GSK3b, 2 μM ATP, 30 minute preincubation, read-out: GSK3-B TR-FRET BIOCHEMICAL (TR-FRET), IC50): > 5000 nM |
| CC[C@@]1(c2cccc(-c3ccncc3)c2)C2=C(CC(C)(C)CC2=O)Nc2n[nH]cc21 [Compound 801412] | > 5000 | > 5000 | – |
| CCC1(c2cccc(-c3ccncc3)c2)C2=C(CC(C)(C)CC2=O)Nc2n[nH]cc21 (centres unmarked) [Compound 801413] | ≤ 100 | ≤ 100 | IC50 [1, 5]: 100 to 1000 nM; IC50 [2, 6]: 1000 to 5000 nM |
| CCC1(c2cccc(-c3cnn(C)c3)c2)C2=C(CC(C)(C)CC2=O)Nc2n[nH]c(C(F)(F)F)c21 (centres unmarked) [Compound 801445] | ≤ 100 | ≤ 100 | – |
| CCC1(c2cccc(OCCOC)c2)C2=C(CC(C)(C)CC2=O)Nc2n[nH]cc21 (centres unmarked) [Compound 801446] | 100 to 1000 | > 1670 | – |
| CCC1(c2cccc(OC)c2)C2=C(CC(C)(C)CC2=O)Nc2n[nH]cc21 (centres unmarked) [Compound 801447] | 100 to 1000 | 1000 to 5000 | – |
| CCC1(c2cccc(OC(C)C)c2)C2=C(CC(C)(C)CC2=O)Nc2n[nH]cc21 (centres unmarked) [Compound 801448] | ≤ 100 | 100 to 1000 | – |
| CCC1(c2cccc(C(F)(F)F)c2)C2=C(CC(C)(C)CC2=O)Nc2n[nH]c(Br)c21 (centres unmarked) [Compound 802358] | ≤ 100 | ≤ 100 | – |
| CC1(C)CC(=O)C2=C(C1)Nc1n[nH]c(C(F)(F)F)c1C21CCc2c(F)cccc21 (centres unmarked) [Compound 806568] | 1000 to 5000 | 100 to 1000 | – |
| Cc1cccc2c1CCC21C2=C(CC(C)(C)CC2=O)Nc2n[nH]cc21 (centres unmarked) [Compound 806603] | ≤ 100 | 100 to 1000 | – |
| CCC1(c2cccc(N3CCNCC3)c2)C2=C(CC(C)(C)CC2=O)Nc2n[nH]cc21 (centres unmarked) [Compound 806604] | > 1670 | > 5000 | – |
| CC1(C)CC(=O)C2=C(C1)Nc1n[nH]cc1C2(C)c1cc(Cl)ccc1Cl (centres unmarked) [Compound 806605] | 1000 to 5000 | > 5000 | – |
